According to patent EP0297534B1, “Castanospermine esters and glycosides” (MERRELL DOW PHARMACEUTICALS INC., priority 1987, dated 1989):
pIC50: −log10 of the molar value.

How the values were obtained:
[1] = target: T1, Intestinal Sucrase (Rattus norvegicus, UniProt P23739); assay: Intestinal sucrase inhibition (glucose liberated from sucrose); format: biochemical; details: crude homogenate from rat intestine; 1 hour preincubation with test compound; sucrose substrate, pH 5.9; read-out: IC₅₀ Intestinal Sucrase
T1 construct: Sucrase was isolated from rat intestine as a crude homogenate; from tissue; host or cells: rat intestine
Method: Sucrase was isolated from rat intestine as a crude homogenate using the salt extraction procedure of Kolinska [Biochem. Biophys. Acta, 284, 235 (1984)]. Incubation mixtures contained 100 µl of enzyme preparation plus test compound and were incubated for 1 hour before the addition of 6.6 µmole sucrose in 100 µl 0.1 M sodium maleate, pH 5.9. The mixtures were incubated an additional 30 minutes and then heat inactivated at 80-100°C for 3 minutes. Denatured protein was removed by centrifugation. Glucose liberated was determined by glucose dehydrogenase reagents (Seragen Diagnostics).

[2] = target: T2, Lysosomal α-Glucosidase (Rattus norvegicus, UniProt Q6P7A9); assay: Lysosomal α-glucosidase inhibition (p-nitrophenyl-α-D-glucoside hydrolysis); format: biochemical; details: partially purified from rat liver, 1 hour preincubation at 37°C, pH 4.2, read-out: IC₅₀ Lysosomal α-Glucosidase
T2 construct: Lysosomal α-glucosidase was isolated and partially purified from rat liver; from tissue; host or cells: rat liver
Method: Lysosomal α-glucosidase was isolated and partially purified from rat liver by the method of Dissous [Anal. Biochem., 116, 35 (1981)] through the ammonium sulfate fractionation steps. Enzyme was incubated with test compound for 1 hour at 37°C prior to the addition of p-nitrophenyl-α-D-glucoside in a final volume of 0.6 ml of 0.1 M sodium acetate, 25 mM potassium chloride, pH 4.2. Mixtures were incubated for an additional 30 minutes at 37°C and then heat inactivated at 90°C. Denatured protein was removed by centrifugation. One ml of 0.1 M sodium carbonate was added to the supernatant fraction and liberated nitrophenol determined by its absorption at 410 nm.

[3] = tested on: serum glucose elevation; assay: Sucrose load test: inhibition of serum glucose elevation; format: in vivo, ICR Swiss mice; details: for minimal effective dose: Mus musculus, 0.5 h, oral, test compound plus sucrose at 2.0 g/kg, serum glucose at 30 minutes post sucrose, amount needed to significantly inhibit serum glucose elevation; for Duration Of Action: oral test compound 1, 2 or 3 hours before sucrose at 2.0 g/kg, serum glucose 30 minutes post sucrose
Method: The compounds of the present invention were further tested in a sucrose load test to determine their ability to inhibit serum glucose elevation. The procedure can be summarized as follows.
ICR Swiss mice, fasted for 18-20 hours, were orally dosed with test compound plus sucrose at 2.0 g/kg. At 30 minutes post sucrose, the animals were sacrificed and their serum glucose concentrations were determined. […] To test duration of action, mice were orally dosed twice. The initial dose was test compound or vehicle. After 1, 2, or 3 hours, the mice were dosed with sucrose at 2.0 g/kg. After an additional 30 minutes post sucrose, the animals were sacrificed and their serum glucose concentrations were determined. Test compound activity was indicated by a significant difference of serum glucose concentration from the corresponding control. The activity observed can be summarized as follows: TABLE II

T2 sequence (Q6P7A9 70-953): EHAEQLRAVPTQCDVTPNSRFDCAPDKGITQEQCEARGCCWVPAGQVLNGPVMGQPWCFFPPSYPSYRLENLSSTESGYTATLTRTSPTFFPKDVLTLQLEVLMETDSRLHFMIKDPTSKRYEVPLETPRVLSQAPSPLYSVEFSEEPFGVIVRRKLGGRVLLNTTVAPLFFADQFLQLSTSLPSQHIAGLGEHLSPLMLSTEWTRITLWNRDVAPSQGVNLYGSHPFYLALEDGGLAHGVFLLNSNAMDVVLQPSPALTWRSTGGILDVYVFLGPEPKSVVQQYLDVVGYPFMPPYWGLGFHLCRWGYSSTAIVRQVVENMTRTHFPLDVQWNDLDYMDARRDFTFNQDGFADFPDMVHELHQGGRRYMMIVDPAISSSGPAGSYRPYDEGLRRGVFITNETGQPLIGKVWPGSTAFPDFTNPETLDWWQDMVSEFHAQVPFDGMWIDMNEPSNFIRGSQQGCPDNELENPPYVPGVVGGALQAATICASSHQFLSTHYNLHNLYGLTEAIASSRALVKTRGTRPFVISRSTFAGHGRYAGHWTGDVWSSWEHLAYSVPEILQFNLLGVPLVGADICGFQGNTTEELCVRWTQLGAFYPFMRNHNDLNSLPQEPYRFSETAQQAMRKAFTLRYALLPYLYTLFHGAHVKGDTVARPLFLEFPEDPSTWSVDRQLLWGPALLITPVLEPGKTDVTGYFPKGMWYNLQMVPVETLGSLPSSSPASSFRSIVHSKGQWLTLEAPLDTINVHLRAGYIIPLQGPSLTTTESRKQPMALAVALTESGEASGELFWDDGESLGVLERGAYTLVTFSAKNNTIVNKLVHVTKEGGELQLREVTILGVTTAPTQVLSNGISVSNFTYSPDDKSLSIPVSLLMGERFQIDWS
T1 sequence (P23739 whole entry): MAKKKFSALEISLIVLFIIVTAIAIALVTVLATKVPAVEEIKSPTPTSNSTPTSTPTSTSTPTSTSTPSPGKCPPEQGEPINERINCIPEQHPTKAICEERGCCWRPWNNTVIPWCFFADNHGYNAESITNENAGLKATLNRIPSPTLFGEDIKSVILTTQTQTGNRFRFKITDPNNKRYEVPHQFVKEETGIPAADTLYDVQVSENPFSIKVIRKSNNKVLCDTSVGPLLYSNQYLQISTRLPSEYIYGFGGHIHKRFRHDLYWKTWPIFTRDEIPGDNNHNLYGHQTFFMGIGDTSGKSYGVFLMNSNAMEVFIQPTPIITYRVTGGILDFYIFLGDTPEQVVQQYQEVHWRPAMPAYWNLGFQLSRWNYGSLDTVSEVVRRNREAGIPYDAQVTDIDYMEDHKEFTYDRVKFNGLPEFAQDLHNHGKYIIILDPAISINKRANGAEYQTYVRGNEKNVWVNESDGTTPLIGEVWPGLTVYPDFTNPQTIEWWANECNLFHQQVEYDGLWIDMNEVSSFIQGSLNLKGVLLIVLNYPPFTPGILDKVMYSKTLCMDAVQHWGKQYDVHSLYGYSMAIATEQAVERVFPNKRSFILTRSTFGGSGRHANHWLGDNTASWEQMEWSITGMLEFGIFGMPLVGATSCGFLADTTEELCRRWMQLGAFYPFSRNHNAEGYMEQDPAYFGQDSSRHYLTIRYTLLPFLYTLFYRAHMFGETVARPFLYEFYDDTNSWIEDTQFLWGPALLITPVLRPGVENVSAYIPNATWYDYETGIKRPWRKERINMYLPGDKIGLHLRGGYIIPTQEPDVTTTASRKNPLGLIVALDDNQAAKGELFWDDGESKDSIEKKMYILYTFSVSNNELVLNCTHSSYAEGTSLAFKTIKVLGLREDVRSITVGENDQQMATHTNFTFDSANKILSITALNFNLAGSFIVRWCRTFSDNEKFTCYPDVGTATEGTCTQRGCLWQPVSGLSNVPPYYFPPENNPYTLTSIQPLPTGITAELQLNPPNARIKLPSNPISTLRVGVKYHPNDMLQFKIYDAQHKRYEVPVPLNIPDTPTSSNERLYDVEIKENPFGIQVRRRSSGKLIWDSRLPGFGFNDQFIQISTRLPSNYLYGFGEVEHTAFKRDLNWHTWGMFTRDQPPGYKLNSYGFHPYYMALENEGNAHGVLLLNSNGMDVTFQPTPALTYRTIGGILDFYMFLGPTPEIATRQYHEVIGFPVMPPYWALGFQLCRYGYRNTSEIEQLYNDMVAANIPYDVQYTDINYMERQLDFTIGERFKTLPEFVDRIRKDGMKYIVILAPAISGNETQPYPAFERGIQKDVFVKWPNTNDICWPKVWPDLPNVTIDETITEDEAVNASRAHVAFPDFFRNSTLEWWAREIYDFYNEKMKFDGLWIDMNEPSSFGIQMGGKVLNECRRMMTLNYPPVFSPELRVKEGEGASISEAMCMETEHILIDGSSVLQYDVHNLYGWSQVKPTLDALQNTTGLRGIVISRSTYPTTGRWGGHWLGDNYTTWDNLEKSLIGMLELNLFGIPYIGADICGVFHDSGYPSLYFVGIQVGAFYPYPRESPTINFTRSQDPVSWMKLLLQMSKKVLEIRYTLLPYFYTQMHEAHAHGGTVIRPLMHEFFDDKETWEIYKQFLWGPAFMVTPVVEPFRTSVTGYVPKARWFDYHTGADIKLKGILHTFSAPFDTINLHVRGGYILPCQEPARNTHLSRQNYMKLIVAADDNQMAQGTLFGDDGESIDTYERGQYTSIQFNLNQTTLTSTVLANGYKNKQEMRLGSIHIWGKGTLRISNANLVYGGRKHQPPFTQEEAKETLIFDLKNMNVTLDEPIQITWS

Row | Compound | pIC50 [1] | pIC50 [2] | minimal effective dose [3] | Duration Of Action [3]
1 | O=C(O[C@H]1CN2CC[C@H](O)[C@@H]2[C@@H](O)[C@@H]1O)c1ccccc1 [6-Benzoate, (1S-(1α,6β,7α,8β,8aβ)]-octahydro-1,6,7,8-indolizinetetrol 6-benzoate] | 7.10 | 3.10 | 1 mg/kg | 1 hour hours
2 | O=C(O[C@H]1CN2CC[C@H](O)[C@@H]2[C@@H](O)[C@@H]1O)c1ccc(F)cc1 [6-(4-Fluorobenzoate), [1S-(1α,6β,7α,8β,8aβ)]-octahydro-1,6,7,8-indolizinetetrol 6-(4-fluorobenzoate)] | 6.70 | 5.40 | 5 mg/kg | 
3 | COc1ccc(C(=O)O[C@H]2CN3CC[C@H](O)[C@@H]3[C@@H](O)[C@@H]2O)cc1 [6-(4-Methoxybenzoate), (1S-(1α,6β,7α,8β,8aβ)]-octahydro-1,6,7,8-indolizinetetrol 6-(4-methoxybenzoate)] | 5.70 | 3.00 |  | 
4 | OC[C@H]1O[C@H](O[C@H]2[C@H](O)[C@@H](O)CN3CC[C@H](O)[C@H]23)[C@H](O)[C@@H](O)[C@@H]1O [8-α-D-Glucopyranoside, 8-O-(α-D-glucopyranosyl)-[1S-(1α,6β,7α,8β,8aβ)]-octahydro-1,6,7,8-indolizinetetrol] | 7.30 | 3.52 | 1 mg/kg | ≧3 hours
5 | O=C(O[C@H]1[C@H](O)[C@H]2[C@@H](O)CCN2C[C@@H]1OC(=O)c1ccc(F)cc1)c1ccc(F)cc1 [6,7-bis(4-Fluorobenzoate), [1S-(1α,6β,7α,8β,8aβ)]-octahydro-1,6,7,8-indolizinetetrol 6,7-bis(4-fluorobenzoate)] | 5.40 | < 3.00 |  | 
6 | CCCC(=O)O[C@H]1[C@H](O)[C@@H](OC(=O)CCC)CN2CC[C@H](O)[C@H]12 [6,8-Dibutyrate, [1S-(1α,6β,7α,8β,8aβ)]-octahydro-1,6,7,8-indolizinetetrol 6,8-dibutanoate] | 6.70 | < 3.00 |  | 
7 | O=C(O[C@H]1[C@H](O)[C@H]2[C@@H](O)CCN2C[C@@H]1O)c1ccc(Cl)cc1Cl [7-(2,4-Dichlorobenzoate), [1S-(1α,6β,7α,8β,8aβ)]-octahydro-1,6,7,8-indolizinetetrol 7-(2,4-dichlorobenzoate)] | 6.40 | 4.00 | 20 mg/kg | 
8 | Cc1ccc(C(=O)O[C@H]2CN3CC[C@H](O)[C@@H]3[C@@H](O)[C@@H]2O)cc1 [6-(4-Methylbenzoate), [1S-(1α,6β,7α,8β,8aβ)]-octahydro-1,6,7,8-indolizinetetrol 6-(4-methylbenzoate)] | 6.52 | 3.00 |  | 
9 | O=C(O[C@H]1[C@H](O)[C@H]2[C@@H](O)CCN2C[C@@H]1OC(=O)c1ccccc1)c1ccccc1 [6,7-Dibenzoate, [1S-(1α,6β,7α,8β,8aβ)]-octahydro-1,6,7,8-indolizinetetrol 6,7-dibenzoate] | 5.70 | < 3.00 | 20 mg/kg | 
10 | O=C(O[C@H]1[C@H](O)[C@H]2[C@@H](O)CCN2C[C@@H]1O)c1ccc(F)cc1 [7-(4-Fluorobenzoate), [1S-(1α,6β,7α,8β,8aβ)]-octahydro-1,6,7,8-indolizinetetrol 7-(4-fluorobenzoate)] | 6.40 | 5.22 | 5 mg/kg | 2 h
11 | O=C(O[C@H]1[C@H](O)[C@H]2[C@@H](O)CCN2C[C@@H]1O)c1ccccc1 [7-Benzoate, [1S-(1α,6β,7α,8β,8aβ)]-octahydro-1,6,7,8-indolizinetetrol 7-benzoate] | 5.70 | 3.70 | 5 mg/kg | 
